Source: PMC12396409, “Screening and hit evaluation of a microbial metabolite library against the pathogenic Plasmodium falciparum and Toxoplasma gondii parasites” (International Journal for Parasitology: Drugs and Drug …, 2025)
Like-named read-outs stand apart in the source and are kept apart here. Where a SMILES comes first, the peptide text is derived from it. [ ]: non-standard residue; d: D form. d(aIle) = CC[C@H](C)[C@@H](N)C(=O)O; Hica(2S) = CC(C)C[C@H](O)C(=O)O; NMeL = CN[C@@H](CC(C)C)C(=O)O; Hiv = CC(C)[C@H](O)C(=O)O

Experiments:
[1] = system: P. falciparum 3D7 parasites; test: P. falciparum growth inhibition assay, 1-cycle (72 h treatment), SYBR DNA staining (library screen at 2 μg/mL and dose-response); format: cell-based, Plasmodium falciparum; conditions: for activity at 2 µg/mL: Plasmodium falciparum
[2] = system: P. falciparum 3D7 parasites; test: P. falciparum growth inhibition assay, 2-cycle (120 h treatment), delayed-death screen and dose-response; format: cell-based, Plasmodium falciparum; conditions: for activity at 2 µg/mL: Plasmodium falciparum
[3] = system: T. gondii RH strain (RH-Tub-eYFP) tachyzoites; test: microbe, parasite or virus in culture; format: cell-based, Toxoplasma gondii; conditions: 72 h, 72 h; for percent parasite growth at 2 µg/mL: Toxoplasma gondii
[4] = P. falciparum, 72 h, parasite screen 2 μg/mL, % growth, replicate 1
[5] = P. falciparum, 72 h, parasite screen 2 μg/mL, % growth, replicate 2
[6] = P. falciparum, 120 h, parasite screen 2 μg/mL, % growth, replicate 1
[7] = P. falciparum, 120 h, parasite screen 2 μg/mL, % growth, replicate 2
[8] = T. gondii, parasite screen 2 μg/mL, % growth, replicate 1
[9] = T. gondii, parasite screen 2 μg/mL, % growth, replicate 2
[10] = library screen at 2 μg/mL, 72 h, % growth, replicate 1
[11] = library screen at 2 μg/mL, 72 h, % growth, replicate 2
[12] = library screen at 2 μg/mL, 120 h, % growth, replicate 1
[13] = library screen at 2 μg/mL, 120 h, % growth, replicate 2
[14] = library screen at 2 μg/mL, % growth, replicate 1
[15] = library screen at 2 μg/mL, % growth, replicate 2
[16] = T. gondii, 2 μg/mL, values are growth (% of control)

For `CC1(C)[C@H](C(=O)O)N2C(=O)C[C@H]2S1(=O)=O` [Sulbactam sodium], the activity at 2 µg/mL ([1]; 3D7, P. falciparum, 72 h, parasite screen 2 μg/mL, % growth, replicate 1, read-out: Pf_72h_%Growth_Rep1) was 90.2%, the activity at 2 µg/mL ([1]; 3D7, P. falciparum, 72 h, parasite screen 2 μg/mL, % growth, replicate 2, read-out: Pf_72h_%Growth_Rep2) was 124% and the activity at 2 µg/mL ([2]; 3D7, P. falciparum, 120 h, parasite screen 2 μg/mL, % growth, replicate 1, read-out: Pf_120h_%Growth_Rep1) was 105%. For the same molecule, the activity at 2 µg/mL ([2]; 3D7, P. falciparum, 120 h, parasite screen 2 μg/mL, % growth, replicate 2, read-out: Pf_120h_%Growth_Rep2) was 104%, the percent parasite growth at 2 µg/mL ([3]; T. gondii, parasite screen 2 μg/mL, % growth, replicate 1, read-out: Tg_72h_%Growth_Rep1) was 134% and the percent parasite growth at 2 µg/mL ([3]; T. gondii, parasite screen 2 μg/mL, % growth, replicate 2, read-out: Tg_72h_%Growth_Rep2) was 84.2%.

For `CCCCCCCCCCCCCCCC(=O)C1=C(O)C(CO)OC1=O` (stereo not drawn) [RK-682], the Pf_72h_%Growth_Rep1 [1, 4] was 82.69%, the Pf_72h_%Growth_Rep2 [1, 5] was 35.30% and the Pf_120h_%Growth_Rep1 [2, 6] was 73.75%. For the same molecule, the Pf_120h_%Growth_Rep2 [2, 7] was 72.22%, the Tg_72h_%Growth_Rep1 [3, 8] was 107.18% and the Tg_72h_%Growth_Rep2 [3, 9] was 84.15%.

`COC(=O)C1=COC(C)C2CN3CCc4c([nH]c5cc(OC)c(OC)cc45)C3CC12` (stereo not drawn) [BIA-I1957] gave a Pf_72h_%Growth_Rep1 ([1]; P. falciparum 3D7, 72 h, library screen at 2 μg/mL, % growth, replicate 1) of 25.00%, a Pf_72h_%Growth_Rep2 ([1]; P. falciparum 3D7, 72 h, library screen at 2 μg/mL, % growth, replicate 2) of 24.20% and a Pf_120h_%Growth_Rep1 ([2]; P. falciparum 3D7, 120 h, library screen at 2 μg/mL, % growth, replicate 1) of 15.82%. It also gave a Pf_120h_%Growth_Rep2 ([2]; P. falciparum 3D7, 120 h, library screen at 2 μg/mL, % growth, replicate 2) of -7.23%, a Tg_72h_%Growth_Rep1 ([3]; T. gondii RH, library screen at 2 μg/mL, % growth, replicate 1) of 168.01% and a Tg_72h_%Growth_Rep2 ([3]; T. gondii RH, library screen at 2 μg/mL, % growth, replicate 2) of 105.99%.

Molecule `OCC1=C[C@@H](N[C@H]2C[C@H](CO)[C@@H](O[C@H]3O[C@@H](CO)[C@H](O)[C@@H](O)[C@@H]3O)[C@H](O)[C@H]2O)[C@H](O)[C@@H](O)[C@@H]1O` [Validamycin A] has a Pf_72h_%Growth_Rep1 ([1]; P. falciparum, 72 h, screen at 2 μg/mL, replicate 1) of 75.67%, a Pf_72h_%Growth_Rep2 ([1]; P. falciparum, 72 h, screen at 2 μg/mL, replicate 2) of 70.52% and a Pf_120h_%Growth_Rep1 ([2]; P. falciparum, 120 h, screen at 2 μg/mL, replicate 1) of 167.49%. For the same molecule, the Pf_120h_%Growth_Rep2 ([2]; P. falciparum, 120 h, screen at 2 μg/mL, replicate 2) was 74.14%, the Tg_72h_%Growth_Rep1 ([3]; T. gondii, screen at 2 μg/mL, replicate 1) was 87.00% and the Tg_72h_%Growth_Rep2 ([3]; T. gondii, screen at 2 μg/mL, replicate 2) was 98.14%.

`CC1=C[C@@H]2/C=C(/C)CCC(=O)[C@@H](O)CCC(=O)[C@]23C(=O)N[C@@H](CC(C)C)[C@@H]3[C@@H]1C` [Aspochalasin M] gave a Pf_72h_%Growth_Rep1 [1, 10] of 78.34%, a Pf_72h_%Growth_Rep2 [1, 11] of 81.89% and a Pf_120h_%Growth_Rep1 [2, 12] of 80.74%. For the same molecule, the Pf_120h_%Growth_Rep2 [2, 13] was 79.20%, the Tg_72h_%Growth_Rep1 [3, 14] was 143.85% and the Tg_72h_%Growth_Rep2 [3, 15] was 96.90%.

`CCCCC[C@@H](O)[C@H]1C(=O)O[C@H](C)[C@@H](O)/C=C/C=C/C=C/C=C/C=C(\C)[C@@H](O)C[C@H](O)C[C@H](O)C[C@H](O)C[C@H](O)C[C@H](O)C[C@@H]1O` [Filipin III] was tested, and the activity at 2 µg/mL ([1]; 3D7, 72 h, library screen at 2 μg/mL, 72 h, % growth, replicate 1, read-out: Pf_72h_%Growth_Rep1) was 83.6%, the activity at 2 µg/mL ([1]; 3D7, 72 h, library screen at 2 μg/mL, 72 h, % growth, replicate 2, read-out: Pf_72h_%Growth_Rep2) was 89.2% and the activity at 2 µg/mL ([2]; 3D7, 120 h, library screen at 2 μg/mL, 120 h, % growth, replicate 1, read-out: Pf_120h_%Growth_Rep1) was 97.4%. It also gave an activity at 2 µg/mL ([2]; 3D7, 120 h, library screen at 2 μg/mL, 120 h, % growth, replicate 2, read-out: Pf_120h_%Growth_Rep2) of 99.7%, a percent parasite growth at 2 µg/mL ([3]; library screen at 2 μg/mL, % growth, replicate 1, read-out: Tg_72h_%Growth_Rep1) of 120% and a percent parasite growth at 2 µg/mL ([3]; library screen at 2 μg/mL, % growth, replicate 2, read-out: Tg_72h_%Growth_Rep2) of 104%.

In the case of `Cc1cc2nc3c(=O)[nH]c(=O)nc-3n(C[C@H](O)[C@H](O)[C@H](O)CO)c2cc1N(C)C` [Roseoflavin], the Pf_72h_%Growth_Rep1 [1, 4] is reported as 11.70%, the Pf_72h_%Growth_Rep2 [1, 5] is reported as 10.95% and the Pf_120h_%Growth_Rep1 [2, 6] is reported as 4.42%. For the same molecule, the Pf_120h_%Growth_Rep2 [2, 7] was 7.07%, the Mean ([3]; T. gondii, 2 μg/mL, mean of both replicates, growth (% of control)) was 28.14 and the “Replicate 1” value [3, 16] was 40.04. For the same molecule, the “Replicate 2” value [3, 16] was 16.23, the Tg_72h_%Growth_Rep1 [3, 8] was 40.04% and the Tg_72h_%Growth_Rep2 [3, 9] was 16.23%.

For `CC[C@H](C)[C@H]1NC(=O)[C@H](C(C)C)OC(=O)[C@H](CC(C)C)N(C)C(=O)[C@H](C(C)C)NC(=O)[C@H](CC(C)C)OC(=O)[C@@H](CC(C)C)NC1=O` [Sporidesmolide V] (cyclo([Hica(2S)]V[NMeL][Hiv][d(aIle)][dL])), the Pf_72h_%Growth_Rep1 [1, 4] was 8.13%, the Pf_72h_%Growth_Rep2 [1, 5] was 0.54% and the Pf_120h_%Growth_Rep1 [2, 6] was 158.27%. The Pf_120h_%Growth_Rep2 [2, 7] was 82.66%, the Tg_72h_%Growth_Rep1 [3, 8] was 84.27% and the Tg_72h_%Growth_Rep2 [3, 9] was 95.04%.

For `CCCCCCC(C)C/C(C)=C\C(/C=C(C)/C=C/C(O)C(C)(C)c1cc(O)c([C@@H]2O[C@H](CO)C[C@H](O)[C@H]2O)c(=O)o1)CO` (stereo partly drawn) [Fusapyrone], the Pf_72h_%Growth_Rep1 [1, 10] was 90.44%, the Pf_72h_%Growth_Rep2 [1, 11] was 35.77% and the Pf_120h_%Growth_Rep1 [2, 12] was 92.76%. It also gave a Pf_120h_%Growth_Rep2 [2, 13] of 105.39%, a Tg_72h_%Growth_Rep1 [3, 14] of 113.82% and a Tg_72h_%Growth_Rep2 [3, 15] of 93.81%.
